Laboratory results as given in patent publication US10517898B2, “Compositions and methods related to hematologic recovery” (The Regents of the University of California, priority 2014, dated 2019).

Test system: PTPσ^−/− BM cells
Test: Transendothelial migration assay (CFCs from migrated cells in lower chamber)
Assay type: cell-based
Conditions: 25 μM EHT1864, 16 hours culture, mouse spleen endothelial cell transwell, CFCs of migrated cells (FIG. 3D)
Method: Transendothelial migration assays were performed as follows. VeraVec™ mouse spleen endothelial cells (Angiocrine Bioscience, New York N.Y.) were cultured to confluence in […] pore transwells (Corning Incorporated, Corning N.Y.). Transwells were seeded with 200,000 BM cells in IMDM with 10% FBS, 1% penicillin-streptomycin, 125 ng/mL stem cell factor, 50 ng/mL Flt-3 ligand and 20 ng/mL thrombopoietin with or without 25 μM Rac inhibitor, EHT1864 (R&D Systems, Minneapolis, Minn.). 100 ng/mL SDF-1α (R&D) or media was added to the bottom chamber of the transwell. 16 hours post culture, cells in the bottom chamber were collected and CFCs were set up with the migrated cells.

O=c1cc(CN2CCOCC2)occ1OCCCCCSc1ccnc2cc(C(F)(F)F)ccc12 [EHT1864]
transendothelial migration capacity of PTPσ^−/− cells: completely abrogated
